The values below come from patent US11066396B2 (priority 2016, dated 2021).

Test [1] concerns the target HDAC1 (Homo sapiens (Human), UniProt Q13547). Conditions: read-out: HDAC1 IC50.
Test [2] deals with HDAC8 (Homo sapiens (Human), UniProt Q9BY41). The note with it: read-out: HDAC8 IC50.
HDAC8, sequence (Q9BY41 whole entry): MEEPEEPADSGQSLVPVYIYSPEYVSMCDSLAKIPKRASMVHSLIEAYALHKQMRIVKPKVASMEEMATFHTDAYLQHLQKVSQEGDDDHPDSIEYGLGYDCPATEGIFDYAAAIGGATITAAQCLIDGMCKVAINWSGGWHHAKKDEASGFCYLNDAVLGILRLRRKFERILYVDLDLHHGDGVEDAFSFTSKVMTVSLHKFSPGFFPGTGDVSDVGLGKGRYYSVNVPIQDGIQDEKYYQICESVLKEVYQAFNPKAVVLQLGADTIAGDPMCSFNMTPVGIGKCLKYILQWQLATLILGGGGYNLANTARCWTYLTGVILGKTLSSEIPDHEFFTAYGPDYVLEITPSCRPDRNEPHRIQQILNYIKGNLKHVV

HDAC1, sequence (Q13547 whole entry): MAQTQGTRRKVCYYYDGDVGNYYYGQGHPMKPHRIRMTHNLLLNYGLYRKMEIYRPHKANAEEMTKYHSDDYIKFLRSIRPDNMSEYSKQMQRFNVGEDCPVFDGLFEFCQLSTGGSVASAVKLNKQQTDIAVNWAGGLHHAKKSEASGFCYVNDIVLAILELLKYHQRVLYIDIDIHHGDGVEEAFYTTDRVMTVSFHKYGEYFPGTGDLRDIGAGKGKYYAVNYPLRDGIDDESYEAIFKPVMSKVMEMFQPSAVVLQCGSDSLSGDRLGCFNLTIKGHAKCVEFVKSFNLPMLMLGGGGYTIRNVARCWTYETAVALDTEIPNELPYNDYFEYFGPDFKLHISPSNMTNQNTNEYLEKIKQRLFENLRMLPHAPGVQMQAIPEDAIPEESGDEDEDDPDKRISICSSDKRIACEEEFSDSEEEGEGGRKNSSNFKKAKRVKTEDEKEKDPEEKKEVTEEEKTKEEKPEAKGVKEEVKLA

For orientation: IC50 means the concentration needed to halve the response being measured. Regarding `Cn1c(OCc2ccc(-c3noc(C(F)(F)F)n3)c(F)c2)nc2cccnc21` [Example 238, 2-({3-fluoro-4-[5-(trifluoromethyl)-1,2,4-oxadiazol-3-yl]phenyl}methoxy)-3-methyl-3H-imidazo[4,5-b]pyridine], the figures for the half-inhibitory concentration (IC50) in test [1] and in test [2] were 510 nM and 1300 nM, respectively.

Take `Cc1cc(NCc2ccc(-c3noc(C(F)(F)F)n3)cn2)on1` [Example 380, 3-methyl-N-({5-[5-(trifluoromethyl)-1,2,4-oxadiazol-3-yl]pyridin-2-yl}methyl)-1,2-oxazol-5-amine]: the figures for the IC50 in test [1] and in test [2] were 930 nM and 1400 nM, respectively.

Consider `CC(C)c1ncncc1C(=O)N(Cc1ccc(-c2noc(C(F)(F)F)n2)cn1)c1cccc(F)c1` [Example 399, N-(3-fluorophenyl)-4-(1-methylethyl)-N-({5-[5-(trifluoromethyl)-1,2,4-oxadiazol-3-yl]pyridin-2-yl}methyl)pyrimidine-5-carboxamide], for which the figures for the half-maximal inhibitory concentration (IC50) in test [1] and in test [2] were 930 nM and 3100 nM, respectively.

On to `Cc1noc(C2CCCC(=O)N2c2ccc(-c3noc(C(F)(F)F)n3)cc2)n1` (racemic) [Example 48, 6-(3-methyl-1,2,4-oxadiazol-5-yl)-1-(4-(5-(trifluoromethyl)-1,2,4-oxadiazol-3-yl)phenyl)piperidin-2-one], for which the values for the IC50 in test [1] and in test [2] were 2200 nM and 1800 nM, respectively.

For `CN1CCN(CC(=O)N(Cc2ccc(-c3noc(C(F)(F)F)n3)cc2)c2cccc(C(F)(F)F)c2)CC1` [Example 93, 2-(4-methylpiperazin-1-yl)-N-(4-(5-(trifluoromethyl)-1,2,4-oxadiazol-3-yl)benzyl)-N-(3-(trifluoromethyl)phenyl)acetamide], the results for the IC50 in test [1] and in test [2] were 990 nM and 2200 nM, respectively.

Regarding `CN1CCN(c2ccc(-c3noc(C(F)(F)F)n3)cn2)[C@@H](c2ccccc2)C1` [Example 134, (S)-3-(6-(4-methyl-2-phenylpiperazin-1-yl)pyridin-3-yl)-5-(trifluoromethyl)-1,2,4-oxadiazole], the half-maximal inhibitory concentration (IC50) in test [1] is 360 nM; in test [2], 2100 nM.

Turning to `O=C(CC1COC1)N(Cc1ccc(-c2noc(C(F)(F)F)n2)cc1)c1cccc(C(F)(F)F)c1` [Example 80, 2-(oxetan-3-yl)-N-(4-(5-(trifluoromethyl)-1,2,4-oxadiazol-3-yl)benzyl)-N-(3-(trifluoromethyl)phenyl)acetamide], the IC50 in test [1] came to 1600 nM; in test [2], 2800 nM.

As for `O=C([C@@H]1CCC(=O)N1c1cc(F)c(-c2noc(C(F)(F)F)n2)cc1F)N1CCC1` [Example 341, (5S)-5-(azetidin-1-ylcarbonyl)-1-{2,5-difluoro-4-[5-(trifluoromethyl)-1,2,4-oxadiazol-3-yl]phenyl}pyrrolidin-2-one], the IC50 in test [1] is 41000 nM; in test [2] it was 26000 nM.

As to `O=C1CCC(c2ccc(-c3noc(C(F)(F)F)n3)cc2)N1c1ccccc1F` (racemic) [Example 320, 1-(2-fluorophenyl)-5-{4-[5-(trifluoromethyl)-1,2,4-oxadiazol-3-yl]phenyl}pyrrolidin-2-one], the values for the IC50 in test [1] and in test [2] were 880 nM and 12000 nM, respectively.

For `COCCN1Cc2ccccc2N(Cc2ccc(-c3noc(C(F)(F)F)n3)cn2)C1=O` [Example 429, 3-(2-methoxyethyl)-1-({5-[5-(trifluoromethyl)-1,2,4-oxadiazol-3-yl]pyridin-2-yl}methyl)-3,4-dihydroquinazolin-2(1H)-one], the values for the IC50 in test [1] and in test [2] were 460 nM and 2300 nM, respectively.

As to `O=C1Nc2ccccc2CC1NCc1ccc(-c2noc(C(F)(F)F)n2)cn1` (racemic) [Example 375, 3-[({5-[5-(trifluoromethyl)-1,2,4-oxadiazol-3-yl]pyridin-2-yl}methyl)amino]-3,4-dihydroquinolin-2(1H)-one], the values for the IC50 in test [1] and in test [2] were 1000 nM and 2600 nM, respectively.

Turning to `Cc1nccnc1C(=O)N(Cc1ccc(-c2noc(C(F)(F)F)n2)cn1)c1cccc(F)c1` [Example 56, N-(3-fluorophenyl)-3-methyl-N-((5-(5-(trifluoromethyl)-1,2,4-oxadiazol-3-yl)pyridin-2-yl)methyl)pyrazine-2-carboxamide], the values for the IC50 in test [1] and in test [2] were 250 nM and 3100 nM, respectively.

Turning to `CC(=O)NCCC(=O)N(Cc1ccc(-c2noc(C(F)(F)F)n2)cc1)c1cccc(C(F)(F)F)c1` [Example 78, 3-acetamido-N-(4-(5-(trifluoromethyl)-1,2,4-oxadiazol-3-yl)benzyl)-N-(3-(trifluoromethyl)phenyl)propanamide], the results for the concentration for half-maximal inhibition (IC50) in test [1] and in test [2] were 890 nM and 2300 nM, respectively.

As for `FC(F)(F)c1nc(-c2ccc(CNC3Cc4ccccc4C3)nc2)no1` [Example 378, N-({5-[5-(trifluoromethyl)-1,2,4-oxadiazol-3-yl]pyridin-2-yl}methyl)-2,3-dihydro-1H-inden-2-amine], the 50% inhibitory concentration (IC50) turned out to be 630 nM in test [1] and 4200 nM in test [2].

With `CC(C)C(=O)N1CCC(C(=O)N(Cc2ccc(-c3noc(C(F)(F)F)n3)cc2)c2cccc(C(F)(F)F)c2)CC1` [Example 90, 1-isobutyryl-N-(4-(5-(trifluoromethyl)-1,2,4-oxadiazol-3-yl)benzyl)-N-(3-(trifluoromethyl)phenyl)piperidine-4-carboxamide], the IC50 in test [1] is 1400 nM; in test [2] it was 2500 nM.

Consider `O=C1CC(NCc2ccc(-c3noc(C(F)(F)F)n3)cn2)CCN1` (racemic) [Example 437, 4-[({5-[5-(trifluoromethyl)-1,2,4-oxadiazol-3-yl]pyridin-2-yl}methyl)amino]piperidin-2-one], for which the concentration for half-maximal inhibition (IC50) in test [1] came out at 5400 nM; in test [2], 5100 nM.

`CC(Cn1cncn1)C(=O)N(Cc1ccc(-c2noc(C(F)(F)F)n2)cc1)c1cccc(C(F)(F)F)c1` (racemic) [Example 79, 2-methyl-3-(1H-1,2,4-triazol-1-yl)-N-(4-(5-(trifluoromethyl)-1,2,4-oxadiazol-3-yl)benzyl)-N-(3-(trifluoromethyl)phenyl)propanamide]: the 50% inhibitory concentration (IC50) came out at 1300 nM in test [1] and 3400 nM in test [2].

Consider `Cc1ccc(NCc2ccc(-c3noc(C(F)(F)F)n3)cn2)nn1` [Example 362, 6-methyl-N-({5-[5-(trifluoromethyl)-1,2,4-oxadiazol-3-yl]pyridin-2-yl}methyl)pyridazin-3-amine], for which the half-maximal inhibitory concentration (IC50) in test [1] was 1400 nM; in test [2] it was 2800 nM.

With `CNc1ccccc1NC(=O)[C@@H]1CCC(=O)N1c1ccc(-c2noc(C(F)(F)F)n2)cc1` [Example 109, (S)-N-(2-(methylamino)phenyl)-5-oxo-1-(4-(5-(trifluoromethyl)-1,2,4-oxadiazol-3-yl)phenyl)pyrrolidine-2-carboxamide], the values for the half-maximal inhibitory concentration (IC50) in test [1] and in test [2] were 1000 nM and 2300 nM, respectively.

With `FC(F)(F)c1nc(-c2ccc(CNc3[nH]nc4ccccc34)nc2)no1` [Example 430, N-({5-[5-(trifluoromethyl)-1,2,4-oxadiazol-3-yl]pyridin-2-yl}methyl)-2H-indazol-3-amine], the IC50 amounted to 530 nM in test [1] and 2000 nM in test [2].

As to `O=C(CN1CCS(=O)(=O)CC1)N(Cc1ccc(-c2noc(C(F)(F)F)n2)cc1)c1cccc(C(F)(F)F)c1` [Example 81, 2-(1,1-dioxidothiomorpholino)-N-(4-(5-(trifluoromethyl)-1,2,4-oxadiazol-3-yl)benzyl)-N-(3-(trifluoromethyl)phenyl)acetamide], the values for the IC50 in test [1] and in test [2] were 1300 nM and 4900 nM, respectively.

In the case of `CNC(=O)c1ccccc1NCc1ccc(-c2noc(C(F)(F)F)n2)cn1` [Example 444, N-methyl-2-[({5-[5-(trifluoromethyl)-1,2,4-oxadiazol-3-yl]pyridin-2-yl}methyl)amino]benzamide], the figures for the half-inhibitory concentration (IC50) in test [1] and in test [2] were 350 nM and 2500 nM, respectively.

With `O=C1CCC(c2c(F)cccc2F)N1c1ccc(-c2noc(C(F)(F)F)n2)cc1F` (racemic) [Example 314, 5-(2,6-difluorophenyl)-1-{2-fluoro-4-[5-(trifluoromethyl)-1,2,4-oxadiazol-3-yl]phenyl}pyrrolidin-2-one], the IC50 in test [1] stood at 11000 nM; in test [2] it was 6500 nM.

With `CC(C)(C(=O)N(Cc1ccc(-c2noc(C(F)(F)F)n2)cn1)c1cccc(F)c1)n1cccn1` [Example 391, N-(3-fluorophenyl)-2-methyl-2-(1H-pyrazol-1-yl)-N-({5-[5-(trifluoromethyl)-1,2,4-oxadiazol-3-yl]pyridin-2-yl}methyl)propanamide], the values for the IC50 in test [1] and in test [2] were 1400 nM and 7400 nM, respectively.

As to `O=C1OC[C@@H](c2ccccc2)N1c1ccc(-c2noc(C(F)(F)F)n2)c(F)c1` [Example 332, (4R)-3-{3-fluoro-4-[5-(trifluoromethyl)-1,2,4-oxadiazol-3-yl]phenyl}-4-phenyl-1,3-oxazolidin-2-one], the concentration for half-maximal inhibition (IC50) in test [1] and in test [2] was 4500 nM throughout.

For `FC(F)(F)c1nc(-c2ccc(CNC3CCN(c4ccccn4)CC3)nc2)no1` [Example 379, 1-(pyridin-2-yl)-N-({5-[5-(trifluoromethyl)-1,2,4-oxadiazol-3-yl]pyridin-2-yl}methyl)piperidin-4-amine], the figures for the IC50 in test [1] and in test [2] were 1900 nM and 7700 nM, respectively.

With `FC(F)(F)c1nc(-c2ccc(CNc3cncnc3)cc2)no1` [Example 419, N-{4-[5-(trifluoromethyl)-1,2,4-oxadiazol-3-yl]benzyl}pyrimidin-5-amine], the IC50 in test [1] came to 2600 nM; in test [2], 1900 nM.

Consider `O=C1C(C2CCOCC2)NC[C@@H](c2cc(F)cc(F)c2)N1c1ccc(-c2noc(C(F)(F)F)n2)cn1` (stereo partly drawn) [Example 38, (6R)-6-(3,5-difluorophenyl)-3-(tetrahydro-2H-pyran-4-yl)-1-(5-(5-(trifluoromethyl)-1,2,4-oxadiazol-3-yl)pyridin-2-yl)piperazin-2-one], for which the IC50 in test [1] came to 4300 nM; in test [2] it was 16000 nM.

As for `CC(C)(C)OC(=O)N1CC(=O)N(c2ccc(-c3noc(C(F)(F)F)n3)cc2)[C@H](c2ccccc2)C1` (racemic) [Example 163, tert-butyl 3-oxo-5-phenyl-4-(4-(5-(trifluoromethyl)-1,2,4-oxadiazol-3-yl)phenyl)piperazine-1-carboxylate], the IC50 in test [1] was 1700 nM; in test [2] it was 4300 nM.
